Assay: In vitro diffusion test of film using Franz apparatus
Format: in vitro ADME
Settings: after 24 h; from chitosan succinic acid film (DS about 60-80%); phosphate buffer pH 7.2, 32° C.
Description: The functionalized chitosan polymeric matrix was synthesized as previously described with a degree of substitution of about 60-80%. 500 mg of caffeine was added in 100 mL functionalized chitosan polymeric matrix solution (2.5%) and stirred during […]. Films were produce by applying 20 mL of the solution evenly onto Petri dishes and dried at room temperature for 24-48 h.
The film produced was subjected to an in vitro diffusion test using Franz apparatus, with an exposed surface area of 3.9 cm^2. Polydimethylsiloxan (Silastic®) membranes have been used as barrier and the receptor compartment (dissolution phase) was 1 L of 50 mM phosphate buffer (pH 7.2) at 32° C. At predetermined time intervals, the samples (5 mL aliquots) were analyzed at 272 nm for the determination of caffeine permeation.

For `Cn1c(=O)c2c(ncn2C)n(C)c1=O` [caffeine], the “amount of caffeine in the receptor compartment” value was 405 μg/cm^2.

Source: US20070077305A1, “Biocompatible polymeric matrix and preparation thereof” (priority 2005, published 2007)
